Article PMC12298351, “Novel 3,19-(N-Phenyl-3-(4-fluorophenyl)-pyrazole) Acetal of Andrographolide Promotes Cell Cycle Arrest and Apoptosis in MDA-MB-231 Breast Cancer Cells” (Pharmaceuticals, 2025)

What was measured:
[1] = system: RXF 393; details: RXF 393, Renal; for CC50: read-out: 50% lethal concentration (LC50)
[2] = system: DU-145; details: DU-145, Prostate; for CC50: read-out: 50% lethal concentration (LC50)
[3] = system: RPMI-8226; details: RPMI-8226, Leukemia; for CC50: read-out: 50% lethal concentration (LC50)
[4] = system: CAKI-1; details: CAKI-1, Renal; for CC50: read-out: 50% lethal concentration (LC50)
[5] = system: SF-268; details: SF-268, CNS; for CC50: read-out: 50% lethal concentration (LC50)
[6] = system: MDA-MB-468; details: MDA-MB-468, Breast; for CC50: read-out: 50% lethal concentration (LC50)
[7] = system: HCC-2998; details: HCC-2998, Colon
[8] = DPPH radical scavenging assay; details: 25 µM test compound, 0.1 mM DPPH, acetonitrile, 30 min
Procedure, shortened: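 Compounds at 25 µM in acetonitrile mixed 1:2 with 0.1 mM DPPH in acetonitrile, kept 30 min in the dark at room temperature. Absorbance read at 517 nm; % scavenging = (Ac − As)/Ac × 100, Ac being DPPH blank. Ascorbic acid positive control.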

[9] = system: MDA-MB-231; details: for GI50: MDA-MB-231, Breast; for Total growth inhibition (TGI) / CC50: MDA-MB-231/ATCC, Breast; for CC50: read-out: 50% lethal concentration (LC50)
[10] = system: OVCAR-3; details: OVCAR-3, Ovarian; for CC50: read-out: 50% lethal concentration (LC50)
[11] = system: MOLT-4; details: MOLT-4, Leukemia; for CC50: read-out: 50% lethal concentration (LC50)
[12] = system: MCF7; details: MCF7, Breast; for CC50: read-out: 50% lethal concentration (LC50)
[13] = system: SF-539; details: SF-539, CNS; for CC50: read-out: 50% lethal concentration (LC50)
[14] = system: HCT-116; format: cell-based; details: HCT-116, Colon
[15] = system: SK-OV-3; details: SK-OV-3, Ovarian; for CC50: read-out: 50% lethal concentration (LC50)
[16] = system: HCT-15; details: HCT-15, Colon; for CC50: read-out: 50% lethal concentration (LC50)
[17] = system: SK-MEL-5; details: SK-MEL-5, Melanoma; for CC50: read-out: 50% lethal concentration (LC50)
[18] = system: NCI-H460; details: for Total growth inhibition (TGI) / CC50: NCI-H460, Non-Small Cell Lung; for GI50: NCI-H460, Non-Small-Cell Lung; for CC50: read-out: 50% lethal concentration (LC50)
[19] = system: KM12; details: KM12, Colon
[20] = system: ACHN; details: for GI50 / Total growth inhibition (TGI): Renal; for CC50: read-out: 50% lethal concentration (LC50), Renal
[21] = system: OVCAR-5; details: OVCAR-5, Ovarian
[22] = system: 786-0; details: 786-0, Renal; for CC50: read-out: 50% lethal concentration (LC50)
[23] = system: SF-295; details: SF-295, CNS; for CC50: read-out: 50% lethal concentration (LC50)
[24] = system: EKVX; details: for Total growth inhibition (TGI): Non-Small Cell Lung; for GI50: Non-Small-Cell Lung; for CC50: read-out: 50% lethal concentration (LC50), Non-Small Cell Lung
[25] = system: NCI-H226; details: for Total growth inhibition (TGI) / CC50: NCI-H226, Non-Small Cell Lung; for GI50: NCI-H226, Non-Small-Cell Lung; for CC50: read-out: 50% lethal concentration (LC50)
[26] = system: SK-MEL-28; details: SK-MEL-28, Melanoma; for CC50: read-out: 50% lethal concentration (LC50)
[27] = system: MDA-MB-435; details: MDA-MB-435, Melanoma; for CC50: read-out: 50% lethal concentration (LC50)
[28] = read-out: 50% lethal concentration (LC50)

SMILES: C=C1CCC2C3(C)COC(c4cn(-c5ccccc5)nc4-c4ccc(OC)cc4)OC3CCC2(C)C1CC=C1C(=O)OCC1O (centres unmarked) [1j]
- GI50 [1]: 890 nM
- Total growth inhibition (TGI) [1]: 2.2 µM
- CC50 [1]: 4.98 µM
- GI50 [2]: 2.04 µM
- Total growth inhibition (TGI) [2]: 4.94 µM
- CC50 [2]: 16.4 µM
- GI50 [3]: 920 nM
- Total growth inhibition (TGI) [3]: > 100 µM
- CC50 [3]: > 100 µM
- GI50 [4]: 1260 nM
- Total growth inhibition (TGI) [4]: 2.64 µM
- CC50 [4]: 5.54 µM
- GI50 [5]: 1.67 µM
- Total growth inhibition (TGI) [5]: 3.6 µM
- CC50 [5]: 7.77 µM
- GI50 [6]: 1710 nM
- Total growth inhibition (TGI) [6]: 3.25 µM
- CC50 [6]: 6.16 µM
- GI50 [7]: 1700 nM
- Total growth inhibition (TGI) [7]: 3.19 µM
- % DPPH radical scavenging activity [8]: 59.2%
- GI50 [9]: 1470 nM
- Total growth inhibition (TGI) [9]: 2.98 µM
- CC50 [9]: 60.1 µM
- GI50 [10]: 1500 nM
- Total growth inhibition (TGI) [10]: 2.96 µM
- CC50 [10]: 5.84 µM
- GI50 [11]: 1710 nM
- Total growth inhibition (TGI) [11]: 7.57 µM
- CC50 [11]: > 100 µM
- GI50 [12]: 1460 nM
- Total growth inhibition (TGI) [12]: > 100 µM
- CC50 [12]: > 100 µM
- GI50 [13]: 1690 nM
- Total growth inhibition (TGI) [13]: 3.1 µM
- CC50 [13]: 5.7 µM
- GI50 [14]: 1400 nM
- Total growth inhibition (TGI) [14]: 3.11 µM
- GI50 [15]: 3440 nM
- Total growth inhibition (TGI) [15]: 23.9 µM
- CC50 [15]: > 100 µM
- GI50 [16]: 1580 nM
- Total growth inhibition (TGI) [16]: 3.37 µM
- CC50 [16]: 7.2 µM
- GI50 [17]: 1540 nM
- Total growth inhibition (TGI) [17]: 2.89 µM
- CC50 [17]: 5.41 µM
- Total growth inhibition (TGI) [18]: 3.5 µM
- GI50 [18]: 1740 nM
- CC50 [18]: 7.01 µM
- GI50 [19]: 1660 nM
- Total growth inhibition (TGI) [19]: 3.31 µM
- GI50 [20]: 1520 nM
- Total growth inhibition (TGI) [20]: 2.87 µM
- CC50 [20]: 5.41 µM
- GI50 [21]: 1860 nM
- Total growth inhibition (TGI) [21]: 4.21 µM
- CC50 [21, 28]: 9.52 µM
- GI50 [22]: 2300 nM
- Total growth inhibition (TGI) [22]: 5.59 µM
- CC50 [22]: > 100 µM
- GI50 [23]: 1430 nM
- Total growth inhibition (TGI) [23]: 2.78 µM
- CC50 [23]: 5.39 µM
- Total growth inhibition (TGI) [24]: 4.49 µM
- GI50 [24]: 1960 nM
- CC50 [24]: > 100 µM
- Total growth inhibition (TGI) [25]: 3.36 µM
- GI50 [25]: 1720 nM
- CC50 [25]: 6.55 µM
- GI50 [26]: 1940 nM
- Total growth inhibition (TGI) [26]: 3.69 µM
- CC50 [26]: 7.01 µM
- GI50 [27]: 1540 nM
- Total growth inhibition (TGI) [27]: 3.17 µM
- CC50 [27]: 6.51 µM

SMILES: C=C1CCC2C3(C)COC(c4cn(-c5ccccc5)nc4-c4cccc([N+](=O)[O-])c4)OC3CCC2(C)C1CC=C1C(=O)OCC1O (centres unmarked) [1b]
- GI50 [1]: 1620 nM
- Total growth inhibition (TGI) [1]: 3.2 µM
- CC50 [1]: 6.32 µM
- GI50 [2]: 4.11 µM
- Total growth inhibition (TGI) [2]: 24.3 µM
- CC50 [2]: > 100 µM
- GI50 [3]: 2450 nM
- Total growth inhibition (TGI) [3]: > 100 µM
- CC50 [3]: > 100 µM
- GI50 [4]: 2810 nM
- Total growth inhibition (TGI) [4]: > 100 µM
- CC50 [4]: > 100 µM
- GI50 [5]: 7.65 µM
- Total growth inhibition (TGI) [5]: > 100 µM
- CC50 [5]: > 100 µM
- GI50 [6]: 1760 nM
- Total growth inhibition (TGI) [6]: 3.52 µM
- CC50 [6]: 7 µM
- GI50 [7]: 1920 nM
- Total growth inhibition (TGI) [7]: 3.53 µM
- CC50 [7, 28]: 6.48 µM
- % DPPH radical scavenging activity [8]: 60.68%
- GI50 [9]: 1840 nM
- Total growth inhibition (TGI) [9]: 3.44 µM
- CC50 [9]: 6.44 µM
- GI50 [10]: 1870 nM
- Total growth inhibition (TGI) [10]: 3.75 µM
- CC50 [10]: 7.55 µM
- GI50 [11]: 2870 nM
- Total growth inhibition (TGI) [11]: > 100 µM
- CC50 [11]: > 100 µM
- GI50 [12]: 2640 nM
- Total growth inhibition (TGI) [12]: > 100 µM
- CC50 [12]: > 100 µM
- GI50 [13]: 1740 nM
- Total growth inhibition (TGI) [13]: 3.18 µM
- CC50 [13]: 5.79 µM
- GI50 [14]: 1990 nM
- Total growth inhibition (TGI) [14]: 4.25 µM
- GI50 [15]: 2080 nM
- Total growth inhibition (TGI) [15]: > 100 µM
- CC50 [15]: > 100 µM
- GI50 [16]: 1740 nM
- Total growth inhibition (TGI) [16]: 3.58 µM
- CC50 [16]: 7.37 µM
- GI50 [17]: 1630 nM
- Total growth inhibition (TGI) [17]: 3 µM
- CC50 [17]: 5.53 µM
- Total growth inhibition (TGI) [18]: 4.8 µM
- GI50 [18]: 2270 nM
- CC50 [18]: 11.3 µM
- GI50 [19]: 1990 nM
- Total growth inhibition (TGI) [19]: 4.38 µM
- GI50 [20]: 1890 nM
- Total growth inhibition (TGI) [20]: 3.62 µM
- CC50 [20]: 6.94 µM
- GI50 [21]: 2060 nM
- Total growth inhibition (TGI) [21]: 5.05 µM
- GI50 [22]: 3040 nM
- Total growth inhibition (TGI) [22]: 10.3 µM
- CC50 [22]: > 100 µM
- GI50 [23]: 1680 nM
- Total growth inhibition (TGI) [23]: 3.19 µM
- CC50 [23]: 6.05 µM
- Total growth inhibition (TGI) [24]: 7.98 µM
- GI50 [24]: 2750 nM
- CC50 [24]: > 100 µM
- Total growth inhibition (TGI) [25]: 6.59 µM
- GI50 [25]: 2380 nM
- CC50 [25]: > 100 µM
- GI50 [26]: 2040 nM
- Total growth inhibition (TGI) [26]: 4.06 µM
- CC50 [26]: 8.11 µM
- GI50 [27]: 3030 nM
- Total growth inhibition (TGI) [27]: 18.3 µM
- CC50 [27]: > 100 µM
